# Assay results taken from patent US20230095520A1, “PHARMACEUTICAL COMPOSITION FOR PREVENTING OR TREATING CANCER COMPRISING AZOLE DERIVATIVES OR PHARMACEUTICALLY ACCEPTABLE SALT THEREOF” (Yungjin Pharm. Co., Ltd., priority 2020, published 2023).
# System: MV-4-11 cells
# Experiment: MV-4-11 cell proliferation inhibition (CCK-8)
# Type: cell-based
# Details: Homo sapiens, 72 hours; for inhibition at 0.1 µM: MV4-11, MV-4-11, compound concentration 100 nM, read-out: Inhibition rate (%); for IC50: MV4-11, MV-4-11 proliferation
# Description: MV-4-11 cells are one of the acute myeloid leukemia cells with a Fms-like tyrosine kinase (FLT3) gene mutation, and these cells are used to test inhibition of proliferation and survival of leukemia cells.
# MV-4-11 cells cultured in a 96-well cell culture plate were treated with the compound of the present invention and cultured for 72 hours. Thereafter, the antiproliferative effect of the compound was assayed by the CCK-8 method using a tetrazolium salt.
IC50 [µM],SMILES,inhibition at 0.1 µM [%]
–,"C=CC(=O)Nc1ccc(-c2cccc(C(C)C(=O)Nc3ncc(C)s3)c2)cn1 (stereo not drawn) [Compound 1, N-(5-(3-(1-((5-methylthiazol-2-yl)amino)-1-oxopropan-2-yl)phenyl)pyridin-2-yl)acrylamide]",80
0.0508,"C=CC(=O)Nc1ccc(-c2cccc(C(C)C(=O)Nc3ncc(CC)s3)c2)cn1 (stereo not drawn) [Compound 4, N-(5-(3-(1-((5-ethylthiazol-2-yl)amino)-1-oxopropan-2-yl)phenyl)pyridin-2yl)acrylamide]",100
–,"CCc1cnc(NC(=O)[C@@H](C)c2cccc(-c3ccc(NC(=O)/C=C/CN(C)C)nc3)c2)s1 [Compound 17, (S,E)-4-(dimethylamino)-N-(5-(3-(1-((5-ethylthiazol-2-yl)amino)-1-oxopropan-2-yl)phenyl)pyridin-2-yl)but-2-enamide]",100
–,"C=CC(=O)Nc1ccc(-c2cccc([C@H](C)C(=O)Nc3ncc(C#N)s3)c2)cn1 [Compound 18, (S)-N-(5-(3-(1-((5-cyanothiazol-2-yl)amino)-1-oxopropan-2-yl)phenyl)pyridin-2-yl)acrylamide]",67
–,"C=CC(=O)Nc1ccc(-c2cccc([C@H](CC)C(=O)Nc3ncc(CC)s3)c2)cn1 [Compound 19, (S)-2-(3-(6-acrylamidopyridin-3-yl)phenyl)-N-(5-ethylthiazol-2-yl)butanamide]",75
–,"C[C@H](C(=O)Nc1ncc(C#N)s1)c1cccc(-c2ccc(NC(=O)/C=C/CN(C)C)nc2)c1 [Compound 21, (S,E)-N-(5-(3-(1-((5-cyanothiazol-2-yl)amino)-1-oxopropan-2-yl)phenyl)pyridin-2-yl)-4-(dimethylamino)but-2-enamide]",84
–,"C=CC(=O)Nc1cnc(-c2cccc([C@H](C)C(=O)Nc3ncc(C#N)s3)c2)cn1 [Compound 25, (S)-N-(5-(3-(1-((5-cyanothiazol-2-yl)amino)-1-oxopropan-2-yl)phenyl)pyrazin-2-yl)acrylamide]",100
–,"C=CC(=O)Nc1ccc(-c2cccc([C@H](C)C(=O)Nc3ncc(CC)s3)c2)cc1C#N [Compound 30, (S)-N-(3-cyano-3′-(1-((5-ethylthiazol-2-yl)amino)-1-oxopropan-2-yl)-[1,1′-biphenyl]-4-yl)acrylamide]",96
–,"C=CC(=O)Nc1ccc(-c2cccc([C@H](C)C(=O)Nc3ncc(CC)s3)c2)c(F)n1 [Compound 31, (S)-N-(5-(3-(1-((5-ethylthiazol-2-yl)amino)-1-oxopropan-2-yl)phenyl)-6-fluoropyridin-2-yl)acrylamide]",98
–,"C=CC(=O)Nc1ccc(-c2cccc([C@H](C)C(=O)Nc3ncc(C#N)s3)c2)nn1 [Compound 32, (S)-N-(6-(3-(1-((5-cyanothiazol-2-yl)amino)-1-oxopropan-2-yl)phenyl)pyridazin-3-yl)acrylamide]",100
–,"C=CC(=O)Nc1ncc(-c2cccc([C@H](C)C(=O)Nc3ncc(C#N)s3)c2)cc1F [Compound 33, (S)-N-(5-(3-(1-((5-cyanothiazol-2-yl)amino)-1-oxopropan-2-yl)phenyl)-3-fluoropyridin-2-yl)acrylamide]",100
–,"C=CC(=O)Nc1ncc(-c2cccc([C@H](C)C(=O)Nc3ncc(C#N)s3)c2)nc1C [Compound 34, (S)-N-(5-(3-(1-((5-cyanothiazol-2-yl)amino)-1-oxopropan-2-yl)phenyl)-3-methylpyrazin-2-yl)acrylamide]",80
–,"C=CC(=O)Nc1ccc(-c2cccc([C@H](C)C(=O)Nc3ncc(C(C)C)s3)c2)cn1 [Compound 35, (S)-N-(5-(3-(1-((5-isopropylthiazol-2-yl)amino)-1-oxopropan-2-yl)phenyl)pyridin-2-yl)acrylamide]",98
–,"C=CC(=O)Nc1cnc(-c2cccc([C@H](C)C(=O)Nc3ncc(C(C)C)s3)c2)cn1 [Compound 36, (S)-N-(5-(3-(1-((5-isopropylthiazol-2-yl)amino)-1-oxopropan-2-yl)phenyl)pyrazin-2-yl)acrylamide]",100
–,"C=CC(=O)Nc1ccc(-c2cccc([C@H](C)C(=O)Nc3ncc(C(F)(F)F)s3)c2)cn1 [Compound 38, (S)-N-(5-(3-(1-oxo-1-((5-(trifluoromethyl)thiazol-2-yl)amino)propan-2-yl)phenyl)pyridin-2-yl)acrylamide]",98
0.03,"C=CC(=O)Nc1ccc(-c2cccc([C@H](C)C(=O)Nc3ncc(C(F)(F)F)s3)c2)nn1 [Compound 39, (S)-N-(6-(3-(1-oxo-1-((5-(trifluoromethyl)thiazol-2-yl)amino)propan-2-yl)phenyl)pyridazin-3-yl)acrylamide]",100
0.0278,"C=CC(=O)Nc1ccc(-c2cccc([C@H](C)C(=O)Nc3ncc(C(C)C)s3)c2)nn1 [Compound 40, (S)-N-(6-(3-(1-((5-isopropylthiazol-2-yl)amino)-1-oxopropan-2-yl)phenyl)pyridazin-3-yl)acrylamide]",100
–,"C=CC(=O)Nc1ccc(-c2cncc(C(C)C(=O)Nc3ncc(C#N)s3)c2)cn1 (stereo not drawn) [Compound 41, N-(5′-(1-((5-cyanothiazol-2-yl)amino)-1-oxopropan-2-yl)-[3,3′-bipyridin]-6-yl)acrylamide]",100
–,"C=CC(=O)Nc1ccc(-c2cc(C(C)C(=O)Nc3ncc(C#N)s3)ccn2)cn1 (stereo not drawn) [Compound 42, N-(4-(1-((5-cyanothiazol-2-yl)amino)-1-oxopropan-2-yl)-[2,3′-bipyridin]-6′-yl)acrylamide]",100
0.0246,"C=CC(=O)Nc1cnc(-c2cncc(C(C)C(=O)Nc3ncc(C4CC4)s3)c2)cn1 (stereo not drawn) [Compound 43, N-(5-(5-(1-((5-cyclopropylthiazol-2-yl)amino)-1-oxopropan-2-yl)pyridin-3-yl)pyrazin-2-yl)acrylamide]",100
0.0544,"C=CC(=O)Nc1cnc(-c2cncc(C(C)C(=O)Nc3ncc(C#N)s3)c2)cn1 (stereo not drawn) [Compound 44, N-(5-(5-(1-((5-cyanothiazol-2-yl)amino)-1-oxopropan-2-yl)pyridin-3-yl)pyrazin-2-yl)acrylamide]",100
0.0091,"C=CC(=O)Nc1cnc(-c2cncc(C(C)C(=O)Nc3ncc(CC)s3)c2)cn1 (stereo not drawn) [Compound 46, N-(5-(5-(1-((5-ethylthiazol-2-yl)amino)-1-oxopropan-2-yl)pyridin-3-yl)pyrazin-2-yl)acrylamide]",100
0.0122,"C=CC(=O)Nc1cnc(-c2cncc(C(C)C(=O)Nc3ncc(C(C)C)s3)c2)cn1 (stereo not drawn) [Compound 47, N-(5-(5-(1-((5-isopropylthiazol-2-yl)amino)-1-oxopropan-2-yl)pyridin-3-yl)pyrazin-2-yl)acrylamide]",100
–,"C=CC(=O)Nc1cnc(-c2cncc(C(C)C(=O)Nc3ncc(C(C)=O)s3)c2)cn1 (stereo not drawn) [Compound 48, N-(5-(5-(1-((5-acetylthiazol-2-yl)amino)-1-oxopropan-2-yl)pyridin-3-yl)pyrazin-2-yl)acrylamide]",100
0.0187,"C=CC(=O)Nc1ccc(-c2cncc(C(C)C(=O)Nc3ncc(C(F)(F)F)s3)c2)nn1 (stereo not drawn) [Compound 49, N-(6-(5-(1-oxo-1-((5-(trifluoromethyl)thiazol-2-yl)amino)propan-2-yl)pyridin-3-yl)pyridazin-3-yl)acrylamide]",100
